The values that follow come from ChEMBL document CHEMBL1811877, “Bioactive neolignans and lignans from the bark of Machilus robusta” (J Nat Prod, 2011).

Molecules are shown by their SMILES. Activity calls are given as the source filed them. No cut-off for these calls is given here.

The test system of assay [1] is Human immunodeficiency virus 1. Description: Antiviral activity against Human immunodeficiency virus 1 assessed as inhibition of viral replication at 0.001 uM. Format: functional.
Assay [2] deals with PC-12. The experiment in a line: Cytoprotection against rotenone-induced toxicity in rat PC12 cells assessed as increase in cell viability at 10 uM after 48 hrs by MTT assay (reference value: 73.0 +/- 9.6%). The format is functional. (Tetrazolium assays rely on reduction of a dye to a coloured formazan, in cell work by metabolically active cells.)
The subject of assay [3] is Human immunodeficiency virus 1. The experiment in a line: Antiviral activity against Human immunodeficiency virus 1 assessed as inhibition of viral replication. The format is functional, organism-based.
Assay [4] has as its system PC-12. The experiment in a line: Cytoprotection against serum deprivation-induced cellular damage of rat PC12 cells assessed as increase in cell viability at 10 uM after 48 hrs by MTT assay (reference value: 66.6 +/- 9.2%). The format is functional.
A further assay concerns WB-F344. The experiment in a line: (§1) Hepatoprotective activity in rat WB-F344 cells assessed as inhibition of D-galactosamine-induced cell damage at 10 uM treated 1 hr before D-galactosamine challenge after 24 hrs by MTT assay. Format: functional.
The nature of assay [5]: as §1. Format: functional.

In the case of `COc1cc2c(cc1O)[C@H](c1cc(OC)c(OC)c(OC)c1)[C@@H](C)[C@@H](C)C2`, the inhibition entry (in assay [1]; in assay [3]; in the assay with WB-F344) was “inactive” in each case. The result with PC-12 [2] and in the assay with PC-12 [4] was inactive.

With `COc1cc2c(cc1O)C(=O)[C@H](C)[C@@H](C)C2`, the inhibition entry (in assay [1]; in assay [3]; in the assay with WB-F344) was “inactive” in each case. Also, the outcome in the assay with PC-12 [2] and in the assay on PC-12 [4] was inactive.

In the case of `COc1cc2c(cc1O)[C@H](c1cc(OC)c(O)c(OC)c1)[C@@H](C)[C@@H](COC(C)=O)C2`, the inhibition entry (in assay [1]; in assay [3]; in the assay with WB-F344) was “inactive” each time. Further, the outcome with PC-12 [2] and in the assay with PC-12 [4] was inactive.

Consider `COc1cc(C[C@H](C)[C@H](C)Cc2ccc(O)cc2)ccc1O`, for which the inhibition entry (in assay [1]; in assay [3]; in the assay with WB-F344) was “inactive” in each case. Further, the outcome with PC-12 [2] and in the assay with PC-12 [4] was inactive.

For the compound `COc1cc([C@@H]2OC[C@H]3[C@@H]2CO[C@H]3c2ccc(O)c(OC)c2)ccc1O` [(-)-PINORESINOL], the Activity in the assay on PC-12 [4] amounted to 73.2%.

In the case of `COc1cc([C@@H]2OC[C@H](Cc3cc(OC)c(O)c(OC)c3)[C@H]2C)ccc1O`, the inhibition result (in assay [1]; in assay [3]; with WB-F344) was “inactive” in each case. Also, the result in the assay on PC-12 [2] and in the assay on PC-12 [4] was inactive.

As to `COc1cc(C[C@H](C)[C@H](C)Cc2cc(O)c(O)c(OC)c2)ccc1O`, the inhibition result in assay [1] and in assay [3] was “inactive” throughout. Besides, the Activity with PC-12 [2] came out at 96.2%. Moreover, in the assay with PC-12 [4], the outcome was inactive. Also, the inhibition (commonly the drop in the measured response relative to a control, in per cent) at 10 µM in assay [5] worked out at 68%.

With `COc1cc2c(cc1O)C(=O)[C@H](C)[C@H](C)C2`, the inhibition entry (in assay [1]; in assay [3]; in the assay with WB-F344) was “inactive” each time. For the same compound, the outcome with PC-12 [2] and in the assay on PC-12 [4] was inactive.

For the compound `COc1cc(C[C@H](C)[C@H](C)Cc2cc(OC)c(O[C@H](C)[C@@H](O)c3ccc(O)c(OC)c3)c(OC)c2)ccc1O`, the inhibition entry (in assay [1]; with WB-F344) was “inactive” in each case. The outcome in the assay on PC-12 [2] and in the assay with PC-12 [4] was inactive. In addition, the IC50 – broadly, the concentration that inhibits the measured activity by half – in assay [3] was 2.52 µM.

Regarding `COc1cc(C[C@H](C)[C@H](C)Cc2cc(OC)c(O[C@@H](C)[C@@H](O)c3ccc(O)c(OC)c3)c(OC)c2)ccc1O`, the inhibition entry (in assay [1]; in the assay on WB-F344) was “inactive” each time. Further, the outcome with PC-12 [2] and in the assay with PC-12 [4] was inactive. Further, the IC50 in assay [3] is 2.01 µM.

Regarding `COc1cc(C[C@H](C)[C@H](C)Cc2cc(OC)c(OC)c(OC)c2)ccc1O`, the inhibition entry (in assay [1]; in assay [3]; with WB-F344) was “inactive” throughout. Besides, the result with PC-12 [2] and in the assay on PC-12 [4] was inactive.

With `O=C1Nc2ccc(Cl)cc2[C@@](C#CC2CC2)(C(F)(F)F)O1` [EFAVIRENZ], the inhibition at 0.001 µM in assay [1] is 42.5%.

For `COc1cc2c(cc1O)[C@H](c1ccc(O)c(O)c1)[C@@H](C)[C@@H](C)C2`, the inhibition result (in assay [1]; in assay [3]; in the assay with WB-F344) was “inactive” throughout. The outcome with PC-12 [2] and in the assay with PC-12 [4] was inactive.

Take `COC(=O)c1cc(OC)c2c(c1-c1c(CO)cc(OC)c3c1OCO3)OCO2` [BICYCLOL]: the inhibition at 10 µM in assay [5] is 67%.

Regarding `COc1cc([C@H](O)[C@@H](C)Oc2ccc([C@H]3c4cc(O)c(OC)cc4C[C@@H](C)[C@@H]3C)cc2OC)ccc1O`, the inhibition entry (in assay [1]; in assay [3]; in the assay on WB-F344) was “inactive” throughout. In addition, the result with PC-12 [2] and in the assay on PC-12 [4] was inactive.

Take `COc1cc(C[C@H](COC(C)=O)[C@H](C)Cc2cc(OC)c(O)c(OC)c2)ccc1O`: the inhibition result (in assay [1]; in assay [3]; with WB-F344) was “inactive” throughout. Further, the outcome in the assay with PC-12 [2] and in the assay with PC-12 [4] was inactive.

On to `COc1cc([C@H]2O[C@@H](c3cc(OC)c(O)c(OC)c3)[C@H](C)[C@@H]2C)ccc1O`, for which the inhibition entry (in assay [1]; in assay [3]; in the assay on WB-F344) was “inactive” in each case. The result in the assay on PC-12 [2] and in the assay on PC-12 [4] was inactive.

As for `COc1cc([C@H]2c3c(cc(OC)c(O)c3OC)C[C@@H](CO)[C@@H]2CO)cc(OC)c1O`, the Activity with PC-12 [4] turned out to be 79.4%.

Take `COc1cc2c(cc1O)[C@H](c1cc(O)c(O)c(OC)c1)[C@@H](C)[C@@H](C)C2`: the inhibition entry in assay [1] and in assay [3] was “inactive” each time. Further, the result with PC-12 [2] and in the assay on PC-12 [4] was inactive. Moreover, in assay [5], the inhibition at 10 µM was determined as 77.2%.

Consider `COc1cc(C[C@H](C)[C@H](COC(C)=O)Cc2cc(OC)c(O)c(OC)c2)ccc1O`, for which the inhibition result (in assay [1]; in assay [3]; in the assay with WB-F344) was “inactive” in each case. The result in the assay on PC-12 [2] and with PC-12 [4] was inactive.

With `COc1cc(C[C@H](C)[C@H](C)Cc2cc(OC)c(O)c(OC)c2)ccc1O`, the inhibition entry (in assay [1]; in assay [3]; in the assay with WB-F344) was “inactive” throughout. Also, the outcome in the assay with PC-12 [2] and in the assay on PC-12 [4] was inactive.

For the compound `COc1cc2c(cc1O)[C@H](c1cc(OC)c(O)c(OC)c1)[C@@H](C)[C@@H](C)C2`, the inhibition result in assay [1] and in assay [3] was “inactive” each time. Besides, the outcome with PC-12 [2] and with PC-12 [4] was inactive. Moreover, the inhibition at 10 µM in assay [5] was 64%.
